ChEMBL document CHEMBL2331375, “Design, Synthesis, and Pharmacological Evaluation of Fluorescent and Biotinylated Antagonists of ρ1 GABAC Receptors” (ACS Med Chem Lett, 2013)
The source made the active and inactive calls. The calls are words filed in the database; no cut-off is given here.

Legend:
[1] = target: T1, Gamma-aminobutyric acid receptor subunit rho-1 (Homo sapiens, UniProt P24046); test: Antagonist activity at human GABAC rho1 receptor expressed in Xenopus laevis oocytes assessed as inhibition of GABA-induced current at 600 uM by two electrode voltage clamp assay relative to control; assay type: cell-based; details: Oocyte
[2] = target: GABA-A receptor; alpha-1/beta-2/gamma-2 (Homo sapiens) (UniProt P14867+P47870+P18507); test: Antagonist activity at human GABAA alpha1beta2gamma2L receptor expressed in Xenopus laevis oocytes assessed as inhibition of GABA-induced current at 300 uM by two electrode voltage clamp assay relative to control; assay type: cell-based; details: Oocyte
[3] = target: GABA-A receptor; agonist GABA site; test: Agonist activity at GABAA receptor (unknown origin); assay type: protein-complex assay, Homo sapiens
[4] = Agonist activity at GABAC receptor (unknown origin) expressed in Xenopus laevis oocytes; assay type: cell-based; details: Homo sapiens, Oocyte
[5] = target: T1, Gamma-aminobutyric acid receptor subunit rho-1; test: Partial agonist activity at GABAC rho1 receptor (unknown origin)
[6] = target: T1, Gamma-aminobutyric acid receptor subunit rho-1; test: Antagonist activity at human GABAC rho1 receptor expressed in Xenopus laevis oocytes assessed as inhibition of GABA-induced current at 300 uM by two electrode voltage clamp assay relative to control; assay type: cell-based; details: Oocyte
[7] = target: T1, Gamma-aminobutyric acid receptor subunit rho-1; test: Agonist activity at GABAC rho1 receptor (unknown origin)
[8] = target: T1, Gamma-aminobutyric acid receptor subunit rho-1; test: Antagonist activity at human GABAC rho1 receptor expressed in Xenopus laevis oocytes assessed as inhibition of GABA-induced current preincubated for 5 mins by two electrode voltage clamp assay; assay type: cell-based, Oocyte
[9] = target: T1, Gamma-aminobutyric acid receptor subunit rho-1; test: Antagonist activity at human GABAC rho1 receptor expressed in Xenopus laevis oocytes assessed as inhibition of GABA-induced current by two electrode voltage clamp assay; assay type: cell-based, Oocyte
[10] = organism: Homo sapiens; test: Selectivity for human GABAC rho1 receptor over human GABAA alpha1beta2gamma2L receptor

T1 sequence (P24046 whole entry): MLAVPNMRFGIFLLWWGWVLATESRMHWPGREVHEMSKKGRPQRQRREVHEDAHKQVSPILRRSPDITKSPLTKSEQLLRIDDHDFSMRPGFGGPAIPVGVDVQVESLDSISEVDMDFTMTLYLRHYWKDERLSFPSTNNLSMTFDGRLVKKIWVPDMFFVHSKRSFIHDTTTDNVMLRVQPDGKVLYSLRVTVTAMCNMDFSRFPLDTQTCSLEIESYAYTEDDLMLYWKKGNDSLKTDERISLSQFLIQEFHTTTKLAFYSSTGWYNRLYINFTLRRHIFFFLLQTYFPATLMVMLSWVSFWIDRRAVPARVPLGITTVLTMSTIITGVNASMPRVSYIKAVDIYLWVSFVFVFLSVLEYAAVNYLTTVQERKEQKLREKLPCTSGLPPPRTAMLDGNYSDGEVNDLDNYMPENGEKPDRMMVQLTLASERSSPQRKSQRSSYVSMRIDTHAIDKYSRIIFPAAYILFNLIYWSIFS

## CCCCP(=O)(O)C1=CC[C@H](NC(=O)CCCCCCCNC(=O)c2ccccc2NC)C1
[1]
  inhibition: 24%

## CCCCP(=O)(O)C1=CC[C@H](NC(=O)CCCCCNC(=O)c2ccccc2NC)C1
[2]
  inhibition: inactive
[1]
  inhibition: 62%

## CCCCP(=O)(O)C1=CC[C@H](NC(=O)CCCNC(=O)c2ccccc2NC)C1
[1]
  inhibition: 23%

## NCc1cc(=O)[nH]o1 [MUSCIMOL]
[3]
  EC50: 27 µM
[4]
  EC50: 2 µM
[5]
  EC50: 2.3 µM

## CCCCP(=O)(O)C1=CC[C@H](NC(=O)CCCCNC(=O)c2ccccc2NC)C1
[1]
  inhibition: 31%

## CCCCP(=O)(O)C1=CC[C@@H](NC(=O)CCCCCNC(=O)c2ccccc2NC)C1
[2]
  inhibition: inactive
[1]
  inhibition: 56%

## CCCCP(=O)(O)C1=CC[C@H](NC(=O)CCCCCCNC(=O)c2ccccc2NC)C1
[1]
  inhibition: 55%

## CCCCP(=O)(O)C1=CC[C@@H](N)C1
[6]
  inhibition: 92%
[2]
  inhibition: inactive

## Cc1nc[nH]c1CC(=O)O
[7]
  EC50: 22 µM

## CCCCP(=O)(O)C1=CC[C@H](NC(=O)CNC(=O)c2ccccc2NC)C1
[1]
  inhibition: 8%

## CCCCP(=O)(O)C1=CC[C@H](NC(=O)CCCCCNC(=O)CCCC[C@@H]2SC[C@@H]3NC(=O)N[C@@H]32)C1
[8]
  IC50: 76.5 µM
[9]
  IC50: 148 µM
[2]
  inhibition: 9%

## O=C(CCCC[C@@H]1SC[C@@H]2NC(=O)N[C@@H]21)NCCCCCC(=O)NCc1cc(O)no1
[4]
  EC50: 20 µM

## CCCCP(=O)(O)C1=CC[C@H](NC(=O)CCCCCNC(=O)CCC2=C3C(C)=CC(C)=[N+]3[B-](F)(F)n3c(C)cc(C)c32)C1
[8]
  IC50: 58.6 µM
[9]
  IC50: 103 µM
[2]
  inhibition: inactive
[10]
  Selectivity ratio: > 100

## CCCCP(=O)(O)C1=CC[C@H](NC(=O)CCCCCCCCCCNC(=O)c2ccccc2NC)C1
[1]
  inhibition: 8%

## CCCCP(=O)(O)C1=CC[C@H](N)C1
[9]
  IC50: 9.76 µM
[6]
  inhibition: 97%
[2]
  inhibition: inactive

## NC[C@@H]1C[C@@H]1C(=O)O
[7]
  EC50: 39.7 µM

## CCCCP(=O)(O)C1=CC[C@H](NC(=O)CCCC[C@@H]2SC[C@@H]3NC(=O)N[C@@H]32)C1
[6]
  inhibition: inactive

## CCCCP(=O)(O)C1=CC[C@H](NC(=O)CCCCCNc2ccc([N+](=O)[O-])c3nonc23)C1
[8]
  IC50: 193 µM
[9]
  IC50: 281 µM
[2]
  inhibition: inactive
